Results from patent US7012144B2, “Quinolone carboxylic acid derivatives” (Korea Research Institute of Chemical Technology, priority 2001, dated 2006).
Values after ≈ are worked out from the molar mass of the structure shown. Where two headings read alike, the source gives them in different places.

Tests used:
[1] = tested on: calf thymus topoisomerase II; assay: Inhibition of the enzyme activity of topoisomerase II; format: biochemical; conditions: concentration to inhibit the enzyme activity of calf thymus topoisomerase II
Description: (§1) Selectivity indexes of the compounds of the present invention and control compounds were measured using gyrase purified from of E. coli and calf thymus topoisomerase II obtained from Topogen. Co.
(§2) The selectivity index (S.I.) was calculated by the equation 1. [formula] wherein, IC100, Topo II is the concentration of a compound to inhibit the enzyme activity of topoisomerase II and IC100, Gyrase is the concentration of a compound to inhibit the enzyme activity of gyrase of E. coli.

[2] = tested on: Streptococcus pyogenes A 77; assay: Antibacterial activity in vitro (MIC, two-fold dilution, Muller Hinton agar); format: cell-based
Description: (§3) The MIC values were determined employing a two-fold dilution method and Muller Hinton agar medium. Each of the Hoechst 345 standard strains having the concentration of 10^7CFU (colony forming unit)/ml was inoculated onto the medium, and incubated at 37° C. for 18 hours.

[3] = tested on: Streptococcus faecium MD 8b; assay: as above; format: cell-based; conditions: 10^7 CFU/ml, 37° C., 18 hours
Description: as §3

Enterobacter cloacae P99 = assay: as above; format: cell-based; conditions: 10^7 CFU/ml, 37° C., 18 hours
Description: as §3

[4] = tested on: Enterobacter cloacae 1321E; assay: as above; format: cell-based; conditions: 10^7 CFU/ml, 37° C., 18 hours
Description: as §3

[5] = tested on: Streptococcus pyogenes A 308; assay: as above; format: cell-based; conditions: 37° C., 18 hours
Description: as §3

Klebsiella oxytoca 1522E = assay: as above; format: cell-based; conditions: 10^7 CFU/ml, 37° C., 18 hours
Description: as §3

Salmonella typhymurium = assay: as above; format: cell-based; conditions: 10^7 CFU/ml, 37° C., 18 hours
Description: as §3

Escherchia coli TEM = assay: as above; format: cell-based; conditions: 10^7 CFU/ml, 37° C., 18 hours
Description: as §3

Escherchia coli 078 = assay: as above; format: cell-based; conditions: 10^7 CFU/ml, 37° C., 18 hours
Description: as §3

[6] = tested on: Staphylococcus aureus 503; assay: as above; format: cell-based; conditions: 10^7 CFU/ml, 37° C., 18 hours
Description: as §3

[7] = tested on: Pseudomonas aeruginosa 9027; assay: as above; format: cell-based; conditions: 10^7 CFU/ml, 37° C., 18 hours
Description: as §3

[8] = tested on: Pseudomonas aeruginosa 1771; assay: as above; format: cell-based; conditions: 10^7 CFU/ml, 37° C., 18 hours
Description: as §3

[9] = tested on: Pseudomonas aeruginosa 1771M; assay: as above; format: cell-based
Description: as §3

Escherchia coli 1507E = assay: as above; format: cell-based; conditions: 10^7 CFU/ml, 37° C., 18 hours
Description: as §3

Escherchia coli DC0 = assay: as above; format: cell-based
Description: as §3

[10] = tested on: Staphylococcus aureus SG 511; assay: as above; format: cell-based; conditions: 37° C., 18 hours
Description: as §3

[11] = tested on: Pseudomonas aeruginosa 1592E; assay: as above; format: cell-based; conditions: 10^7 CFU/ml, 37° C., 18 hours
Description: as §3

[12] = tested on: Staphylococcus aureus 285; assay: as above; format: cell-based
Description: as §3

Klebsiella oxytoca 1082E = assay: as above; format: cell-based; conditions: 10^7 CFU/ml, 37° C., 18 hours
Description: as §3

gyrase of E. coli = target: T1, gyrase of E. coli (Escherichia coli, UniProt P0AES4+P0AES6); assay: Inhibition of the enzyme activity of gyrase; format: biochemical; conditions: concentration to inhibit the enzyme activity of gyrase of E. coli
T1 construct: gyrase purified from of E. coli; host or cells: E. coli
T1 sequence (P0AES4 whole entry, one chain of several): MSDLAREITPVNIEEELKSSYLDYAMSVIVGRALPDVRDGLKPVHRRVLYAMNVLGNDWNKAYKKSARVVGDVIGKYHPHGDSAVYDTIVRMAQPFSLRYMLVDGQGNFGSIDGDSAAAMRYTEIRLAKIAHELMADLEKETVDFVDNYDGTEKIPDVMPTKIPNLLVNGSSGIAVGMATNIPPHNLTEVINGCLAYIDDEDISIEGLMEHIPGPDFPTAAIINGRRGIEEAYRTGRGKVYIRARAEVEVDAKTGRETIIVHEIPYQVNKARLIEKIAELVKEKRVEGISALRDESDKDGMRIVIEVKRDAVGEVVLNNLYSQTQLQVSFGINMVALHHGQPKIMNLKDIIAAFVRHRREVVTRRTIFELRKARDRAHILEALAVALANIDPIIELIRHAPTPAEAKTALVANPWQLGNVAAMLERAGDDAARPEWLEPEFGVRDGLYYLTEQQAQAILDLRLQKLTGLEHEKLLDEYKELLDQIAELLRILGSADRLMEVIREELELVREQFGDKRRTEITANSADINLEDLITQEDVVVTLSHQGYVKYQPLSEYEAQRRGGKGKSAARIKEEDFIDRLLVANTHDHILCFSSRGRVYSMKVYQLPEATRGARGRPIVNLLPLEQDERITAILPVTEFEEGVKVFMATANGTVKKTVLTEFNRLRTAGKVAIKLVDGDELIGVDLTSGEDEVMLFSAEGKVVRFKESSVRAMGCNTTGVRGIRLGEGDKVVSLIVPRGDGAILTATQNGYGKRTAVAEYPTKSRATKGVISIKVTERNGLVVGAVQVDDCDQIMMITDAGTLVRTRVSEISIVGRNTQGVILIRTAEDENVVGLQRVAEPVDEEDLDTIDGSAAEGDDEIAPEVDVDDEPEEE
Description: as §1, §2

Escherchia coli DC2 = assay: Antibacterial activity in vitro (MIC, two-fold dilution, Muller Hinton agar); format: cell-based
Description: as §3

[13] = Enterococcus faecium, MD8B, read-out: MIC
[14] = A308, 10^7 CFU/ml, read-out: MIC
[15] = Pseudomonas aeruginosa, 1771M, 18 h
[16] = SG511, 10^7 CFU/ml, read-out: MIC
[17] = Streptococcus pyogenes A 77, 10^7 CFU/ml, 37° C., 18 hours
[18] = Escherchia coli DC2, 10^7 CFU/ml, 37° C., 18 hours
[19] = Pseudomonas aeruginosa 1771M, 10^7 CFU/ml, 37° C., 18 hours
[20] = Escherchia coli DC0, 10^7 CFU/ml, 37° C., 18 hours
[21] = Staphylococcus aureus 285, 10^7 CFU/ml, 37° C., 18 hours

Structure (SMILES): CC1CN(c2c(F)c(N)c3c(=O)c(C(=O)O)cn(C4CC4)c3c2F)CC(C)N1 (stereo not shown) [Sparfloxacin, 1-cyclopropyl-5-amino-6,8-difluoro-7-(3,5-dimethylpiperazin-1-yl)-4-oxoquinoline-3-carboxylic acid, reference compound]
- IC100, Topo II [1]: 500 µg/mL
- MIC ([2]; A77, Streptococcus pyogenes A 77, 10^7 CFU/ml, 37° C., 18 hours, read-out: MIC): 0.195 µg/mL (≈ 0.497 µM)
- MIC [3, 13]: 0.391 µg/mL (≈ 0.996 µM)
- MIC (Enterobacter cloacae P99; read-out: MIC): 0.007 µg/mL (≈ 0.0178 µM)
- MIC ([4]; read-out: MIC): 0.004 µg/mL (≈ 0.0102 µM)
- MIC [5, 14]: 0.391 µg/mL (≈ 0.996 µM)
- MIC (Klebsiella oxytoca 1522E; read-out: MIC): 0.025 µg/mL (≈ 0.0637 µM)
- MIC (Salmonella typhymurium; read-out: MIC): 0.007 µg/mL (≈ 0.0178 µM)
- MIC (Escherchia coli TEM; read-out: MIC): 0.013 µg/mL (≈ 0.0331 µM)
- MIC (Escherchia coli 078; read-out: MIC): 0.004 µg/mL (≈ 0.0102 µM)
- MIC ([6]; read-out: MIC): 0.049 µg/mL (≈ 0.125 µM)
- MIC ([7]; read-out: MIC): 0.781 µg/mL (≈ 1.99 µM)
- MIC ([8]; read-out: MIC): 0.781 µg/mL (≈ 1.99 µM)
- MIC [9, 15]: 0.195 µg/mL (≈ 0.497 µM)
- MIC (Escherchia coli 1507E; read-out: MIC): 0.025 µg/mL (≈ 0.0637 µM)
- MIC (Escherchia coli DC0; 18 h): 0.195 µg/mL (≈ 0.497 µM)
- MIC [10, 16]: 0.098 µg/mL (≈ 0.25 µM)
- MIC ([11]; read-out: MIC): 0.781 µg/mL (≈ 1.99 µM)
- MIC ([12]; Staphylococcus aureus 285, 10^7 CFU/ml, 37° C., 18 hours, read-out: MIC): 0.049 µg/mL (≈ 0.125 µM)
- MIC (Klebsiella oxytoca 1082E; read-out: MIC): < 0.002 µg/mL
- IC100, Gyrase (gyrase of E. coli): 1.0 µg/mL

Structure (SMILES): COc1c(N2CCC(N)(c3ccncc3)C2)c(F)cc2c(=O)c(C(=O)O)cn(C3CC3)c12 (stereo not shown) [Compound 11, 1-cyclopropyl-6-fluoro-8-methoxy-7-[{3-amino-3-(pyridin-4-yl)pyrrolidin}-1-yl]-4-oxo-1,4-dihydroquinolin-3-carboxylic acid]
- IC100, Topo II [1]: 1,000 μg/ml
- MIC [2, 17]: 0.013 µg/mL (≈ 0.0296 µM)
- MIC [3]: 0.025 µg/mL (≈ 0.057 µM)
- MIC (Enterobacter cloacae P99): 0.004 µg/mL (≈ 0.00912 µM)
- MIC [4]: 0.002 µg/mL (≈ 0.00456 µM)
- MIC ([5]; 10^7 CFU/ml): 0.025 µg/mL (≈ 0.057 µM)
- MIC (Klebsiella oxytoca 1522E): 0.013 µg/mL (≈ 0.0296 µM)
- MIC (Escherchia coli DC2; [18]): 0.013 µg/mL (≈ 0.0296 µM)
- MIC (Salmonella typhymurium): 0.007 µg/mL (≈ 0.016 µM)
- MIC (Escherchia coli TEM): 0.007 µg/mL (≈ 0.016 µM)
- MIC (Escherchia coli 078): <0.002 µg/mL
- MIC [6]: 0.007 µg/mL (≈ 0.016 µM)
- MIC [7]: 0.195 µg/mL (≈ 0.445 µM)
- MIC [8]: 0.195 µg/mL (≈ 0.445 µM)
- MIC [9, 19]: 0.098 µg/mL (≈ 0.224 µM)
- MIC (Escherchia coli 1507E): 0.013 µg/mL (≈ 0.0296 µM)
- MIC (Escherchia coli DC0; [20]): 0.049 µg/mL (≈ 0.112 µM)
- MIC ([10]; 10^7 CFU/ml): 0.013 µg/mL (≈ 0.0296 µM)
- MIC [11]: 0.195 µg/mL (≈ 0.445 µM)
- MIC [12, 21]: 0.013 µg/mL (≈ 0.0296 µM)
- MIC (Klebsiella oxytoca 1082E): 0.002 µg/mL (≈ 0.00456 µM)
- IC100, Gyrase (gyrase of E. coli): 0.4 µg/mL

Structure (SMILES): O=C(O)c1cn(C2CC2)c2cc(N3CCNCC3)c(F)cc2c1=O [Ciprofloxacin, 1-cyclopropyl-6-fluoro-7-(piperazin-1-yl)-4-oxoquinoline-3-carboxylic acid, reference compound]
- IC100, Topo II [1]: 500 µg/mL
- MIC ([2]; Streptococcus pyogenes, A77, 18 h): 0.781 µg/mL (≈ 2.36 µM)
- MIC [3, 13]: 0.391 µg/mL (≈ 1.18 µM)
- MIC [5, 14]: 3.12 µg/mL (≈ 9.43 µM)
- MIC (Klebsiella oxytoca 1522E; read-out: MIC): 0.013 µg/mL (≈ 0.0392 µM)
- MIC (Escherchia coli DC2; 18 h): 0.049 µg/mL (≈ 0.148 µM)
- MIC (Salmonella typhymurium; read-out: MIC): 0.007 µg/mL (≈ 0.0211 µM)
- MIC (Escherchia coli TEM; read-out: MIC): 0.007 µg/mL (≈ 0.0211 µM)
- MIC (Escherchia coli 078; read-out: MIC): 0.004 µg/mL (≈ 0.0121 µM)
- MIC ([6]; read-out: MIC): 0.391 µg/mL (≈ 1.18 µM)
- MIC ([7]; read-out: MIC): 0.195 µg/mL (≈ 0.589 µM)
- MIC ([8]; read-out: MIC): 0.195 µg/mL (≈ 0.589 µM)
- MIC [9, 15]: 0.049 µg/mL (≈ 0.148 µM)
- MIC (Escherchia coli 1507E; read-out: MIC): 0.007 µg/mL (≈ 0.0211 µM)
- MIC (Escherchia coli DC0; 18 h): 0.195 µg/mL (≈ 0.589 µM)
- MIC [10, 16]: 0.195 µg/mL (≈ 0.589 µM)
- MIC ([11]; read-out: MIC): 0.195 µg/mL (≈ 0.589 µM)
- MIC ([12]; Staphylococcus aureus, 285, 18 h): 0.781 µg/mL (≈ 2.36 µM)
- MIC (Klebsiella oxytoca 1082E; read-out: MIC): < 0.002 µg/mL
- IC100, Gyrase (gyrase of E. coli): 0.5 µg/mL

Structure (SMILES): COc1c(N2CCC(CN)(c3ccccn3)C2)c(F)cc2c(=O)c(C(=O)O)cn(C3CC3)c12 (stereo not shown) [Compound 3, 1-cyclopropyl-6-fluoro-8-methoxy-7-[{3-aminomethyl-3-(pyridin-2-yl)pyrrolidin}-1-yl]-4-oxo-1,4-dihydroquinolin-3-carboxylic acid]
- IC100, Topo II [1]: 1,000 μg/ml
- MIC [2, 17]: 0.007 µg/mL (≈ 0.0155 µM)
- MIC [3]: 0.007 µg/mL (≈ 0.0155 µM)
- MIC (Enterobacter cloacae P99): 0.007 µg/mL (≈ 0.0155 µM)
- MIC [4]: <0.002 µg/mL
- MIC ([5]; 10^7 CFU/ml): 0.013 µg/mL (≈ 0.0287 µM)
- MIC (Klebsiella oxytoca 1522E): 0.013 µg/mL (≈ 0.0287 µM)
- MIC (Escherchia coli DC2; [18]): 0.013 µg/mL (≈ 0.0287 µM)
- MIC (Salmonella typhymurium): 0.007 µg/mL (≈ 0.0155 µM)
- MIC (Escherchia coli TEM): 0.007 µg/mL (≈ 0.0155 µM)
- MIC (Escherchia coli 078): <0.002 µg/mL
- MIC [6]: 0.007 µg/mL (≈ 0.0155 µM)
- MIC [7]: 0.195 µg/mL (≈ 0.431 µM)
- MIC [8]: 0.098 µg/mL (≈ 0.217 µM)
- MIC [9, 19]: 0.098 µg/mL (≈ 0.217 µM)
- MIC (Escherchia coli 1507E): 0.007 µg/mL (≈ 0.0155 µM)
- MIC (Escherchia coli DC0; [20]): 0.049 µg/mL (≈ 0.108 µM)
- MIC ([10]; 10^7 CFU/ml): 0.007 µg/mL (≈ 0.0155 µM)
- MIC [11]: 0.195 µg/mL (≈ 0.431 µM)
- MIC [12, 21]: 0.013 µg/mL (≈ 0.0287 µM)
- MIC (Klebsiella oxytoca 1082E): <0.002 µg/mL
- IC100, Gyrase (gyrase of E. coli): 0.2 µg/mL
